Source: US8536140B2, “Methods for treating inflammatory bowel disease” (MTI Meta Tech Inc., priority 2004, dated 2013)

Key:
[1] = Distribution of ganglioside to the intestine (discussion)
Giardia cells = settings: after 2 h, cited from earlier work
rat intestine = settings: dietary, rat intestine in vivo; cited from earlier work
CaCo-2 cells [2] = assay: Lactate dehydrogenase (LDH) release cytotoxicity assay; type: cell-based, human
Protocol: The human colon cancer cell line, CaCo-2, was obtained from American Type Culture Collection (Manassas, Va.) and was grown (passage 50-65) under standard incubator conditions (humidified atmosphere, 5% CO2, 37° C.) as adherent monolayer cultures in T-flasks containing Earle's minimum essential medium (EMEM). The cell culture growth medium (pH 7.2) was supplemented with 10% (v/v) fetal bovine serum, 1% (v/v) antibiotic/antimycotic, 26 mM sodium bicarbonate, 10 mM HEPES and 1 mM pyruvic acid. Media was changed every 2-3 days and cell density and viability was assessed with a hemocytometer using the trypan blue dye exclusion method.
Human intestine CaCo-2 cells were seeded at a density of 400,000 cells/ml on a 24 well plate. At confluence, cells were switched into EMEM-4 (4% FBS) and treated with a range of GD3 concentrations (0-64 μg/ml) similar or higher than the amount in human milk on the apical side for 24 h under standard incubator conditions. […] In brief, cell lysates and supernatants were incubated with an enzyme/substrate solution for 30 min at room temperature and the absorbance of colored formazan product was measured at 490 nm with a microtiter plate reader (Molecular Devices, Sunnyvale, Calif.). Absorbance background reading under kit conditions was less than 0.075. Data were expressed as percentage LDH release from cells. […]

CaCo-2 cells [3] = assay: Apical and basolateral GD3 uptake, retention, transfer and metabolism in CaCo-2 cell monolayers on trans-well plates; type: in vitro ADME, human
Protocol: Polarized, differentiated monolayers of CaCo-2 cells grown on trans-well plates were used as a model to study apical and basolateral GD3 uptake. CaCo-2 cells were seeded at a density of 2.5×10^7 cells/ml on 0.4 μm pore inserts in 24 well trans-well plates (Corning Inc., Acton, Mass.). The apical (upper) and basolateral (lower) compartments contained 100 μl and 600 μl of EMEM-10, respectively. CaCo-2 cells were grown to confluence and were differentiated twenty days prior to delivering gangliosides. After 20 days, CaCo-2 cells were differentiated and polarized with intact tight junctions, as confirmed by alkaline phosphatase activity and trans-epithelial resistance measurements (data not shown). On day 21, CaCo-2 cells were transferred into Hank's MEM-4, a low serum, low calcium medium containing no antibiotics to limit serum and calcium interference with ganglioside uptake and antibiotic effects on tight junction permeability. Serum present in the media aided in GD3 solubilization and micelle formation during sonication. CaCo-2 cells were incubated under standard conditions in the absence (control, MEM-4 alone) or presence of purified ganglioside GD3 in MEM-4 for 6, 24 and 48 h at a concentration of 5 or 10 μg/ml. The time frame for exposing human intestine CaCo-2 cells to ganglioside GD3 was chosen to be 6-48 h as previous work on ganglioside GM1 uptake by cultured cells predicts slow and incomplete ganglioside absorption from the apical side. […] The ganglioside treated cells received GD3 on either the BBM (apical) side or the BLM side of CaCo-2 cell monolayers. GD3 delivery on the apical and BLM side of CaCo-2 cells was used as an in vitro model for enteral and intravenous nutrient delivery, respectively. After GD3 incubation, apical and BLM supernatants were collected and cells were washed with PBS and Tris buffer containing EDTA. CaCo-2 cells from each trans-well insert were trypsinized, pooled together in Tris-mannitol buffer and sonicated to form cell lysates. Cell lysates were saved for protein and ganglioside analysis.
Total and individual gangliosides were measured with a colorimetric sialic acid assay as ganglioside bound N-acetyl neuraminic acid (GG-NANA). An aliquot of purified ganglioside sample was dried under N2 gas and dissolved with 0.5 ml of ddH20 and 0.5 ml of resorcinol-HCl in screw-capped Teflon-lined tubes. The purple-blue color developed by reacting resorcinol reagent with ganglioside sialic acid at 160° C. for 8 min was extracted into butylacetate/butanol (85:15, v/v) solvent. Optical density was read by a spectrophotometer at 580 nm. For quantitative analysis, N-acetyl neuraminic acid (also known as sialic acid) was used as a standard.
The following equations were used to calculate the percentage and amount of ganglioside GD3 taken up, retained, transferred and metabolized by human intestinal CaCo-2 cells following brush border membrane or basolateral membrane GD3 delivery. For all calculations the values obtained from the control were subtracted off the test groups to correct for small levels of ganglioside present in the serum and cells. In Equation 1, the % uptake=[(amount delivered-amount remaining)*100%] divided by the amount delivered. In Equation 2, the % retention=[amount cell*100%] divided by the amount uptake. In Equation 3, the % transfer=[amount receiving compartment*100%] is divided by the amount uptake. In Equation 4, the % metabolism=[amount uptake−amount retained−amount transferred*100%] divided by the amount uptake.
Sample size determination for a one tailed comparison at 80% power to detect a 4-5 fold increase in GM1 levels in skin fibroblasts (0.2 nmol/mg protein to 0.9 nmol/mg protein, P<0.05) requires a sample size of 3. All data are expressed as the mean±the standard error of the mean for a sample size of n=4 (4 different cell passages) for intestine cell sensitivity experiments and n=3-4 (3-4 different cell passages) for ganglioside GD3 absorption experiments. […]

II^3 NeuAc-LacCer [GM3]
Fraction that could have been distributed to the intestine [1]: ≤ 47.4%

II^3 NeuAc-GgOse4Cer [GM1]
Fraction that could have been distributed to the intestine [1]: at most 6%
Ganglioside incorporated (Giardia cells): 2.4 µg
Maximal uptake efficiency (Giardia cells; same amount of ganglioside): 10%

CC(C)CCC[C@@H](C)[C@H]1CC[C@H]2[C@@H]3CC=C4C[C@@H](O)CC[C@]4(C)[C@H]3CC[C@]12C [cholesterol]
Apical uptake efficiency (rat intestine): 50%

II^3 (NeuAc)2-LacCer [GD3]
LDH release from cells (CaCo-2 cells [2]; 64 μg/ml, 24 h): significant release of LDH
Concentration at which toxicity to enterocytes begins (CaCo-2 cells [2]; after 24 h exposure): greater than 32 μg/ml
Apical GD3 uptake efficiency, maximum (CaCo-2 cells [3]; 10 μg/ml apical, after 24 h): 73%
GD3 uptake, basolateral compared to apical delivery (CaCo-2 cells [3]; 10 μg/ml, 6, 24 and 48 h): faster and more efficient
Time course of GD3 uptake (CaCo-2 cells [3]; 10 μg/ml, 6, 24 and 48 h at 37° C.): rapid and linear for the first 6 h
Amount of GD3 taken up from the basolateral membrane side when concentration doubled (CaCo-2 cells [3]; 5 or 10 μg/ml, 6 h at 37° C.): twice as high
Percent of GD3 taken up that was metabolized (CaCo-2 cells [3]; after 6 h apical exposure, 10 μg/ml): 96%
Drop of the percentage GD3 metabolized (CaCo-2 cells [3]; after 24 h apical exposure): 32%
GD3 incorporated (CaCo-2 cells [3]; apical delivery of 24 μg, after 24 h): 18.5 µg
Fate of basolateral membrane GD3 uptake (CaCo-2 cells [3]; following 24 h exposure, 10 μg/ml): completely metabolized

sphingomyelin
Apical uptake efficiency (rat intestine): 22-43%
